Data from patent publication US8846699B2, “Quinazoline derivatives as a multiplex inhibitor and method for the preparation thereof” (Hanmi Pharm. Co., Ltd., priority 2005, dated 2014).

Columns and labels:
[1] = molecular target: VEGFR2 (KDR) (Homo sapiens (Human), UniProt P35968); test: VEGFR2 (KDR) enzyme assay, fluorescence polarization; type: biochemical; settings: 5 μM ATP, poly(Glu, Tyr) substrate
Outline: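 Buffer: 20 mM HEPES pH 7.4 with 5 mM MgCl2, 2 mM MnCl2 and 50 μM Na3VO4. Compound (0.0001–10 μM) was premixed 10 min with VEGFR2 (200 ng/10 μl), then poly(Glu,Tyr) substrate (10 ng/ml) and 5 μM ATP were added for 1 h at room temperature. EDTA-quenched samples were read by FP after 30 min with antibody and tracer.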

[2] = test system: Human Umbilical Vein Endothelial Cell (HUVEC); test: Inhibitory effect on growth of human umbilical vein endothelial cell (HUVEC), MTS; type: cell-based; settings: 10 ng/ml VEGF, absorbance 490 nm
[3] = test system: colon and rectal cancer cell line, SW-620; test: Inhibitory effect on growth of cancer cell line SW-620, SRB; type: cell-based; settings: not having overexpressed EGFR and EGFR2
Outline: (§1)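 Growth inhibition was measured by sulforhodamine-B staining (absorbance 570 nm) of TCA-fixed cells after 72 h compound exposure at 37 °C, 5% CO2. Test concentrations ran from 10 μM in 10-fold steps to 10^−4, with DMSO below 1%, in 10% FBS DMEM.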

[4] = molecular target: EGFR1 (HER-1) (Homo sapiens (Human), UniProt P00533); test: EGFR1 (HER-1) enzyme assay, fluorescence polarization; type: biochemical; settings: 100 μM ATP, poly(Glu, Tyr) substrate
[5] = test system: skin cancer cell line, A431; test: Inhibitory effect on growth of cancer cell line A431, SRB; type: cell-based; settings: overexpressed EGFR1 (HER-1)
Outline: as §1

[6] = test system: breast cancer cell line, SK-Br3; test: Inhibitory effect on growth of cancer cell line SK-Br3, SRB; type: cell-based; settings: overexpressed EGFR2 (HER-2)
Outline: as §1

Chain of VEGFR2 (KDR) (P35968 20-1356): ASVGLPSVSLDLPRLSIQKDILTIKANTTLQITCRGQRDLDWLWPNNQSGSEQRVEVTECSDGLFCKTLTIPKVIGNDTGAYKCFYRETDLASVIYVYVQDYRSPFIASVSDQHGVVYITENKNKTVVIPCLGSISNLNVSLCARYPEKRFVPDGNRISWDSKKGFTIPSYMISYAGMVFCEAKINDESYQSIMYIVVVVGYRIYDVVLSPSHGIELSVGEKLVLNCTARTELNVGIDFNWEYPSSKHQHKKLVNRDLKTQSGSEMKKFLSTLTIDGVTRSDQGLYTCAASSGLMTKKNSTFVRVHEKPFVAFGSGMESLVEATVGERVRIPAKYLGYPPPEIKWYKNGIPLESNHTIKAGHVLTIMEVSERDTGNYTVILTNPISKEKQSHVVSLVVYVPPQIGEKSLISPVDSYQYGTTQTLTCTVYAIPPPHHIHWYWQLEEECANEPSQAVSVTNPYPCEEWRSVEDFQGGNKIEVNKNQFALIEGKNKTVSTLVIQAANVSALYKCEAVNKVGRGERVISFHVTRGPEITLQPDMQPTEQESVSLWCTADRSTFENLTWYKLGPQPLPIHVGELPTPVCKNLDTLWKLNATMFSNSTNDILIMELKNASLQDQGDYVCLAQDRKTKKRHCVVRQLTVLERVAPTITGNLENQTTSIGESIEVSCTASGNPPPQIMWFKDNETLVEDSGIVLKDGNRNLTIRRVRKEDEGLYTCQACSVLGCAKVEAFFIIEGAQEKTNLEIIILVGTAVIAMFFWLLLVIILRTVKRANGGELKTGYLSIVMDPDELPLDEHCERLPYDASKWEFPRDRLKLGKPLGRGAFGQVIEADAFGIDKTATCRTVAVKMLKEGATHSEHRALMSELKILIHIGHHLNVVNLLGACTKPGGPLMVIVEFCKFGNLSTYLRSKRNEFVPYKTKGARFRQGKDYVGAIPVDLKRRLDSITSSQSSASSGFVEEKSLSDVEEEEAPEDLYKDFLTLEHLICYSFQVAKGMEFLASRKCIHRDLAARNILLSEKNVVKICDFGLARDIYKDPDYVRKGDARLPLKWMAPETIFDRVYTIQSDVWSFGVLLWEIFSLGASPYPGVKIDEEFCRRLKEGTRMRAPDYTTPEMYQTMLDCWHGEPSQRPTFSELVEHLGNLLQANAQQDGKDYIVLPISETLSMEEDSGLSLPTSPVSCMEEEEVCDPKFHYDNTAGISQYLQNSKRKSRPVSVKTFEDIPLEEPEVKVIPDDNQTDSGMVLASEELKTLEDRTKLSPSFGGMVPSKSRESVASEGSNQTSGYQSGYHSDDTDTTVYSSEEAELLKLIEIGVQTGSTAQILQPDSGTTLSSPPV

Compound | IC50 [1] [µM] | IC50 ([3]; Homo sapiens, 72 h) [µM] | IC50 [4] [µM] | IC50 ([5]; Homo sapiens, A-431, 72 h) [µM] | IC50 ([6]; Homo sapiens, SK-BR-3, 72 h) [µM] | IC50 ([3]; 72 hours) [µM] | IC50 ([5]; 72 hours) [µM] | IC50 ([6]; 72 hours) [µM] | IC50 ([2]; Homo sapiens, 96 h) [µM] | IC50 ([2]; 96 hours) [µM]
C=CC(=O)Nc1cc2c(Nc3ccc(Br)c(Cl)c3F)ncnc2cc1OCCNC(=O)COC [Example 146, N-{4-(4-bromo-3-chloro-2-fluoro-phenylamino)-7-[2-(2-methoxy-acetylamino)-ethoxy]-quinazolin-6-yl}-acrylamide] | 0.257 | 2.79 | 0.213 | 0.203 | 0.097 |  |  |  | 0.365 | 
C=CC(=O)Nc1cc2c(Nc3ccc(Br)c(F)c3F)ncnc2cc1OCCNC(=O)CCN(CC)CC [Example 125, N-{4-(4-bromo-2,3-difluoro-phenylamino)-7-[2-(3-diethylamino-propionylamino)-ethoxy]-quinazolin-6-yl}-acrylamide] | 0.218 | 2.98 | 0.019 | 0.022 | 0.242 |  |  |  | 0.657 | 
C=CC(=O)Nc1cc2c(Nc3ccc(Br)cc3F)ncnc2cc1OCCNC(=O)C=CCN(C)C [Example 53, 4-dimethylamino-but-2-enoic acid {2-[6-acryloylamino-4-(4-bromo-2-fluoro-phenylamino)-quinazolin-7-yloxy]-ethyl}-amide] | 0.875 | 4.76 | 0.016 | 0.012 | 0.223 |  |  |  | 0.964 | 
C=CC(=O)Nc1cc2c(Nc3ccc(Br)cc3F)ncnc2cc1OC[C@@H](C)NC(C)=O [Example 82, (R)—N-[7-(2-acetylamino-propoxy)-4-(4-bromo-2-fluoro-phenylamino)-quinazolin-6-yl]-acrylamide] | 0.158 | 10 | 0.029 | 0.035 | 0.06 |  |  |  | 0.205 | 
C=CC(=O)Nc1cc2c(Nc3ccc(Br)cc3F)ncnc2cc1OCCNC [Example 30, N-[4-(4-bromo-2-fluoro-phenylamino)-7-(2-methylamino-ethoxy)-quinazolin-6-yl]-acrylamide] | 0.513 | 4.53 | 0.096 | 0.127 | 0.581 |  |  |  | 0.964 | 
C=CC(=O)Nc1cc2c(Nc3ccc(Br)cc3F)ncnc2cc1OCCNC(=O)C(=O)OCC [Example 71, {2-[6-acryloylamino-4-(4-bromo-2-fluoro-phenylamino)-quinazolin-7-yloxy]-ethyl}-oxalamic acid ethylester] | 0.251 | 2.98 | 0.098 | 0.1 | 4.4 |  |  |  | 0.286 | 
C=CC(=O)Nc1cc2c(Nc3ccc(Br)cc3F)ncnc2cc1OCCNC(C)=O [Example 18, N-[7-(2-acetylamino-ethoxy)-4-(4-bromo-2-fluoro-phenylamino)-quinazolin-6-yl]-acrylamide] | 0.096 | 8.07 | 0.002 | 0.015 | 0.137 |  |  |  | 0.052 | 
C=CC(=O)Nc1cc2c(Nc3ccc(Br)cc3F)ncnc2cc1OCCNC(=O)CC [Example 27, N-[4-(4-bromo-2-fluoro-phenylamino)-7-(2-propionylamino-ethoxy)-quinazolin-6-yl]-acrylamide] | 0.25 | 9.56 | 0.003 | 0.03 | 0.05 |  |  |  | 0.096 | 
N-{2-[6-acryloylamino-4-(4-bromo-2-fluoro-phenylamino)-quinazolin-7-yloxy]-ethyl}-3-dimethylamino-butylamide [Example 75] | 0.658 |  | 0.325 |  |  | 2.66 | 0.452 | 0.658 |  | 0.69
C=CCNC(=O)NCCOc1cc2ncnc(Nc3ccc(Br)cc3F)c2cc1NC(=O)C=C [Example 40, N-[7-[2-(3-allyl-ureido)-ethoxy]-4-(4-bromo-2-fluoro-phenylamino)-quinazolin-6-yl]-acrylamide] | 0.155 | 10 | 0.019 | 0.013 | 0.166 |  |  |  | 0.268 | 
C=CC(=O)Nc1cc2c(Nc3cc(Cl)c(Br)cc3F)ncnc2cc1OCCNC(=O)CN(C)C [Example 135, N-{4-(4-bromo-5-chloro-2-fluoro-phenylamino)-7-[2-(2-dimethylamino-acetylamino)-ethoxy]-quinazolin-6-yl}-acrylamide] | 0.784 | 2.43 | 0.009 | 0.011 | 0.042 |  |  |  | 1.31 | 
C=CC(=O)Nc1cc2c(Nc3ccc(Br)cc3F)ncnc2cc1OCCNCC(C)=O [Example 55, N-{4-(4-bromo-2-fluoro-phenylamino)-7-[2-(2-oxo-propylamino)-ethoxy]-quinazolin-6-yl}-acrylamide] | 0.471 | 4.54 | 0.589 | 0.426 | 0.437 |  |  |  | 0.359 | 

Second part, led by results:

IC50 [1] [µM] | IC50 ([3]; Homo sapiens, 72 h) [µM] | IC50 [4] [µM] | IC50 ([5]; Homo sapiens, A-431, 72 h) [µM] | IC50 ([6]; Homo sapiens, SK-BR-3, 72 h) [µM] | IC50 ([3]; 72 hours) [µM] | IC50 ([5]; 72 hours) [µM] | IC50 ([6]; 72 hours) [µM] | Compound | IC50 ([2]; Homo sapiens, 96 h) [µM] | IC50 ([2]; 96 hours) [µM]
0.203 | 2.35 | 0.003 | 0.037 | 0.241 |  |  |  | C=CC(=O)Nc1cc2c(Nc3ccc(Br)cc3F)ncnc2cc1OCC1CCN(C(=O)C=C)CC1 [Example 5, N-[7-(1-acryloyl-piperidin-4-ylmethoxy)-4-(4-bromo-2-fluoro-phenylamino)-quinazolin-6-yl]-acrylamide] | 0.034 | 
0.951 | 4.59 | 0.987 | 1.02 | 1.36 |  |  |  | C=CC(=O)Nc1cc2c(Nc3ccc(Br)cc3F)ncnc2cc1OCCNC(=O)CN1CCC1 [Example 110, N-[7-[2-(2-azetidin-1-yl-acetylamino)-ethoxy]-4-(4-bromo-2-fluoro-phenylamino)-quinazolin-6-yl]-acrylamide] | 0.956 | 
0.189 | 8.25 | 0.068 | 0.089 | 0.043 |  |  |  | C=CC(=O)Nc1cc2c(Nc3ccc(Br)c(Cl)c3F)ncnc2cc1OCCNC(=S)NCC [Example 170, N-{4-(4-bromo-3-chloro-2-fluoro-phenylamino)-7-[2-(3-ethyl-thioureido)-ethoxy]-quinazolin-6-yl}-acrylamide] | 0.287 | 
0.209 | 9.57 | 0.024 | 0.027 | 0.067 |  |  |  | C=CC(=O)Nc1cc2c(Nc3ccc(Br)cc3F)ncnc2cc1OCCNC(=O)CS(C)(=O)=O [Example 47, N-{4-(4-bromo-2-fluoro-phenylamino)-7-[2-(2-methanesulfonyl-acetylamino)-ethoxy]-quinazolin-6-yl}-acrylamide] | 0.269 | 
0.954 |  | 0.032 |  |  | 10 | 0.033 | 0.194 | N-{2-[6-acryloylamino-4-(4-bromo-2-fluoro-phenylamino)-quinazolin-7-yloxy]-ethyl}-butylamide [Example 51] |  | 0.987
0.954 | 5.51 | 0.125 | 0.116 | 0.395 |  |  |  | C=CC(=O)Nc1cc2c(Nc3ccc(Br)cc3F)ncnc2cc1OCCNC(=O)C(C)N(C)C (stereo not drawn) [Example 58, N-{4-(4-bromo-2-fluoro-phenylamino)-7-[2-(2-dimethylamino-propionylamino)-ethoxy]-quinazolin-6-yl}-acrylamide] | 0.945 | 
